# According to paper PMC7782499, “Progerinin, an optimized progerin-lamin A binding inhibitor, ameliorates premature senescence phenotypes of Hutchinson-Gilford progeria syndrome” (Communications Biology, 2021):
# Several values for one entry are separate records, joined by “and”; a condition that tells them apart may be missing. Equal values may be shown once.
# Molecular target: T1, progerin (Homo sapiens, UniProt P02545)
# T1 sequence (P02545 1-614 isoform P02545-6): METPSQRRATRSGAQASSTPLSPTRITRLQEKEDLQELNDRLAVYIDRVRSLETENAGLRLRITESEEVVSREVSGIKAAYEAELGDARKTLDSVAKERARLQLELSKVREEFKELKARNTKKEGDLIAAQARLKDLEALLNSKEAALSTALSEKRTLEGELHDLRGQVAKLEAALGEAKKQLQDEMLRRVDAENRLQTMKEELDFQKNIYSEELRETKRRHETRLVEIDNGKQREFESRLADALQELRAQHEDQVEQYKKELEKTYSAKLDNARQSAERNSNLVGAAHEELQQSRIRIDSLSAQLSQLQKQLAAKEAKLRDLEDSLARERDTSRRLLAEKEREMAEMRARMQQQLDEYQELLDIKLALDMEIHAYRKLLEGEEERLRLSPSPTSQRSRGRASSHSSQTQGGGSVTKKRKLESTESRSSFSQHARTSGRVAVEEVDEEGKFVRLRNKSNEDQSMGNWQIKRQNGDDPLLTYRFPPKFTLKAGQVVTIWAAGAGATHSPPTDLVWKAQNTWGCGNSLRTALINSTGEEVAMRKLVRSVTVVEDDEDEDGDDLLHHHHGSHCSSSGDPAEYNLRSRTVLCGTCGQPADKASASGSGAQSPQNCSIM
# Assay: Progerin expression in HGPS patient cells (western blot, immunostaining)
# Format: cell-based
# Set-up: host or cells: HGPS patient fibroblasts
# Conditions: for Progerin intensity after treatment with chemicals, Ave: average; for Progerin intensity after treatment with chemicals: single replicates
# Procedure: Fig. 1 SLC-D011 ameliorates premature aging features of HGPS. A. HEK293 cells were transiently transfected with expression vector encoding wild-type lamin A (WT-LA), lamin A-C661A (LA-C661A), progerin, or progerin-C611A. LA-C661A or progerin-C611A with point mutation in CaaX motif was predicted to be lack of farnesylation, […] that of authentic WT-LA or progerin. GFP-conjugated empty expression vector was used as a negative control. Cells were visualized at 24 h after transfection. B Transient transfection of HEK293 cells with expression vector encoding progerin or progerin-G611A leads to reduced expression of H3K9me3 (n = 3 independent experiments; two-tailed Student’s t test). C. JH4 derivatives (JH010 and SLC-D011(D011)) inhibit lamin A and progerin interaction. For binding inhibition assay, bead-conjugated lamin A (GST-LA) was incubated with HEK293 cells, transiently transfected with GFP-progerin (PG), and treated with indicated chemicals. Actin was used as a loading control. PPT, co-precipitated materials with recombinant proteins; Sup supernatant. 5 μM of each chemical was used for binding assay. […] H3K9me3 reduction is a well-known marker for premature aged cells. Thus, H3K9me3 expression was evaluated by immunostaining. […] E SLC-D011 obviously suppresses progerin expression. […] F SLC-D011 reduces the expression of progerin in other HGPS cells (AG11513 and AG11498, Coriell Cell Repositories). […] G JH4, JH010, and SLC-D011 promote cell proliferation. Cell viability was determined by MTT assay after incubation with chemicals for 7 days (n = 3 independent experiments; two-tailed Student’s t test). H JH4, JH010, and SLC-D011 show similar activity for ameliorating nuclear deformation. After incubation with chemicals for 7 days, cells were stained with progerin and H3K9me3 antibodies (n = 3 independent experiment; two-tailed Student’s t test), **p < 0.001. Data are reported as mean ± SD. “Con” means Dimethyl sulfoxide (DMSO)-treated control. The data are normalized to DMSO-treated cells.
# Protein was extracted from cells using a radioimmunoprecipitation assay (RIPA) buffer (50 mM Tris-Cl, pH 7.5, 150 mM NaCl, 1% NP-40, 0.1% SDS, and 10% sodium deoxycholate). Samples were separated by sodium dodecyl sulfate-polyacrylamide gel electrophoresis (SDS-PAGE) and transferred to polyvinylidene difluoride (PVDF) membranes. Blotted membranes were blocked with 3% skimmed milk in TBS-T buffer (20 mM Tris pH 7.6, 150 mM NaCl, and 0.05% Tween 20) for 1 h followed by incubation with specific primary antibodies. Horseradish peroxidase (HRP)-conjugated goat anti-mouse, goat anti-rabbit, and mouse anti-goat IgG antibodies (Pierce, Thermo Fisher Scientific, Inc., Rockford, IL, USA) were used as secondary antibodies. Peroxidase activity was detected by chemiluminescence using an ECL kit (Intron, Seoul, Korea) following the manufacturer’s instructions. Bands were quantified using Image J software (National Institute of Health, NIH).
# Cells were cultured on coverslips, washed with PBS, fixed with 4% paraformaldehyde (PFA) for 30 min at RT, and then permeabilized with 0.2% Triton X-100 at RT for 5 min. After treatment with blocking solution (anti-Human antibody diluted 1:400 in PBS) for 1 h, cells were incubated with anti-lamin A/C (1:400), anti-progerin (1:100), Ki67 (1:200), and anti-H3K9me3 (1:200) in blocking buffer overnight at 4 °C. Finally, cells were incubated with fluorescein isothiocyanate and rhodamine-conjugated secondary antibodies at 4 °C for 7 h. Nuclei were stained with DAPI (4, 6-diamidino-2-phenylindole) at RT for 10 min. After cells were washed three times with PBS, coverslips were mounted with mounting solution (H-5501; Vector Laboratories, Burlingame, CA, USA). Immunofluorescence signal was detected with a fluorescence microscopy (Zeiss and Logos).
# Fig. S7. Therapeutic effect of SLC-D011 at a low concentration. […]
# AG11513; B) dose-dependently. […]
structure (smiles),measurement,setting,value
CC1(C)Oc2cc3oc(=O)ccc3cc2CC1OC(=O)C=Cc1cccnc1 (stereo not shown) [JH4],"Progerin intensity after treatment with chemicals, Ave","AG03198, 2μM",15.1057 AU
same,Progerin intensity after treatment with chemicals,"AG03198, 2μM",13.2274 AU and 13.4377 AU and 18.652 AU
same,"Progerin intensity after treatment with chemicals, Ave","AG03198, 5μM",4.247 AU
same,Progerin intensity after treatment with chemicals,"AG03198, 5μM",1.2854 AU and 1.491 AU and 9.966 AU
CC1(C)Oc2cc3oc(=O)ccc3cc2C[C@@H]1OC/C=C/c1ccccc1 [SLC-D011],"Progerin intensity after treatment with SLC-D011, Ave","AG03198, 10nM, average (Fig S7C)",7.117 AU
same,Progerin intensity after treatment with SLC-D011,"AG03198, 10nM, single replicates (Fig S7C)",5.32 AU and 7.51 AU and 8.52 AU
same,"Progerin intensity after treatment with SLC-D011, Ave","AG03198, 50nM, average (Fig S7C)",3.183 AU
same,Progerin intensity after treatment with SLC-D011,"AG03198, 50nM, single replicates (Fig S7C)",2.38 AU and 3.11 AU and 4.06 AU
same,"Progerin intensity after treatment with SLC-D011, Ave","AG03198, 100nM, average (Fig S7C)",1.91 AU
same,Progerin intensity after treatment with SLC-D011,"AG03198, 100nM, single replicates (Fig S7C)",2.22 AU and 1.69 AU and 1.82 AU
same,"Progerin intensity after treatment with SLC-D011, Ave","AG03198, 500nM, average (Fig S7C)",1.503 AU
same,Progerin intensity after treatment with SLC-D011,"AG03198, 500nM, single replicates (Fig S7C)",2.58 AU and 0.9 AU and 1.03 AU
same,"Progerin intensity after treatment with SLC-D011, Ave","AG03198, 1μM, average (Fig S7C)",0.68 AU
same,Progerin intensity after treatment with SLC-D011,"AG03198, 1μM, single replicates (Fig S7C)",1.32 AU and 0.45 AU and 0.27 AU
same,"Progerin intensity after treatment with chemicals, Ave","AG03198, 2μM",1.893 AU
same,"Progerin intensity after treatment with SLC-D011, Ave","AG03198, 2μM, average (Fig S7C)",0.14 AU
same,Progerin intensity after treatment with chemicals,"AG03198, 2μM",1.798 AU and 1.397 AU and 2.484 AU
same,Progerin intensity after treatment with SLC-D011,"AG03198, 2μM, single replicates (Fig S7C)",0 AU and 0.23 AU and 0.19 AU
same,"Progerin intensity after treatment with chemicals, Ave","AG03198, 5μM",0.1657 AU
same,"Progerin intensity after treatment with SLC-D011, Ave","AG03198, 5μM, average (Fig S7C)",0.02333 AU
same,Progerin intensity after treatment with chemicals,"AG03198, 5μM",0 AU and 0.123 AU and 0.3741 AU
same,Progerin intensity after treatment with SLC-D011,"AG03198, 5μM, single replicates (Fig S7C)",0 AU (2×) and 0.07 AU
same,"Progerin intensity after treatment with SLC-D011, Ave","AG11498, 10nM, average (Fig S7C)",6.647 AU
same,Progerin intensity after treatment with SLC-D011,"AG11498, 10nM, single replicates (Fig S7C)",6.56 AU and 6.24 AU and 7.14 AU
same,"Progerin intensity after treatment with SLC-D011, Ave","AG11498, 50nM, average (Fig S7C)",4.11 AU
same,Progerin intensity after treatment with SLC-D011,"AG11498, 50nM, single replicates (Fig S7C)",2.38 AU and 3.5 AU and 6.45 AU
same,"Progerin intensity after treatment with SLC-D011, Ave","AG11498, 100nM, average (Fig S7C)",1.733 AU
same,Progerin intensity after treatment with SLC-D011,"AG11498, 100nM, single replicates (Fig S7C)",0 AU and 1.5 AU and 3.7 AU
same,"Progerin intensity after treatment with SLC-D011, Ave","AG11498, 500nM, average (Fig S7C)",0.9 AU
same,Progerin intensity after treatment with SLC-D011,"AG11498, 500nM, single replicates (Fig S7C)",0 AU and 0.6 AU and 2.1 AU
same,"Progerin intensity after treatment with SLC-D011, Ave","AG11498, 1μM, average (Fig S7C)",0.4533 AU
same,Progerin intensity after treatment with SLC-D011,"AG11498, 1μM, single replicates (Fig S7C)",0 AU (2×) and 1.36 AU
same,"Progerin intensity after treatment with SLC-D011, Ave","AG11498, 2μM, average (Fig S7C)",0.3333 AU
same,Progerin intensity after treatment with SLC-D011,"AG11498, 2μM, single replicates (Fig S7C)",0 AU (2×) and 1 AU
same,"Progerin intensity after treatment with SLC-D011, Ave","AG11498, 5μM, average (Fig S7C)",0.25 AU
same,Progerin intensity after treatment with SLC-D011,"AG11498, 5μM, single replicates (Fig S7C)",0 AU (2×) and 0.75 AU
same,"Progerin intensity after treatment with SLC-D011, Ave","AG11498, average (Fig S3H)",1.892 AU
same,Progerin intensity after treatment with SLC-D011,"AG11498, single replicates (Fig S3H)",5.217 AU and 0.1632 AU and 0.2958 AU
same,"Progerin intensity after treatment with SLC-D011, Ave","AG11513, 10nM, average (Fig S7C)",5.123 AU
same,Progerin intensity after treatment with SLC-D011,"AG11513, 10nM, single replicates (Fig S7C)",2.96 AU and 6.48 AU and 5.93 AU
same,"Progerin intensity after treatment with SLC-D011, Ave","AG11513, 50nM, average (Fig S7C)",3.793 AU
same,Progerin intensity after treatment with SLC-D011,"AG11513, 50nM, single replicates (Fig S7C)",3.06 AU and 4.3 AU and 4.02 AU
same,"Progerin intensity after treatment with SLC-D011, Ave","AG11513, 100nM, average (Fig S7C)",2.487 AU
same,Progerin intensity after treatment with SLC-D011,"AG11513, 100nM, single replicates (Fig S7C)",2.07 AU and 2.27 AU and 3.12 AU
same,"Progerin intensity after treatment with SLC-D011, Ave","AG11513, 500nM, average (Fig S7C)",1.19 AU
same,Progerin intensity after treatment with SLC-D011,"AG11513, 500nM, single replicates (Fig S7C)",0.81 AU and 1.08 AU and 1.68 AU
same,"Progerin intensity after treatment with SLC-D011, Ave","AG11513, 1μM, average (Fig S7C)",0.59 AU
same,Progerin intensity after treatment with SLC-D011,"AG11513, 1μM, single replicates (Fig S7C)",0.55 AU and 0.6 AU and 0.62 AU
same,"Progerin intensity after treatment with SLC-D011, Ave","AG11513, 2μM, average (Fig S7C)",0.2167 AU
same,Progerin intensity after treatment with SLC-D011,"AG11513, 2μM, single replicates (Fig S7C)",0.27 AU and 0.22 AU and 0.16 AU
same,"Progerin intensity after treatment with SLC-D011, Ave","AG11513, 5μM, average (Fig S7C)",0.09 AU
same,Progerin intensity after treatment with SLC-D011,"AG11513, 5μM, single replicates (Fig S7C)",0.2 AU and 0 AU and 0.07 AU
same,"Progerin intensity after treatment with SLC-D011, Ave","AG11513, average (Fig S3H)",1.455 AU
same,Progerin intensity after treatment with SLC-D011,"AG11513, single replicates (Fig S3H)",1.494 AU and 1.1106 AU and 1.761 AU
same,Concentration enough for eliminating progerin,HGPS cells,100 nM
same,Effect on progerin expression,HGPS cells,reduce progerin expression
same,"Progerin intensity after treatment with SLC-D011, Ave","N9, average (Fig S3H)",0 AU
same,Progerin intensity after treatment with SLC-D011,"N9, single replicates (Fig S3H)",0 AU
